Key:
[1] = system: retina; test: Ex-vivo staining of porcine eyes, dye extraction and HPLC quantification in retina near the peeled area; conditions: ex-vivo swine eyes; for increase in the dyes content in the retina with respect to the staining formulation according to the invention: p=0.004
Protocol: (§1) To this end, a staining composition according to the invention was prepared having the following formulation (% by weight). • dye: Benzyl-BBG according to Example 4: 0.025% • Sodium phosphate monobasic dihydrate: 0.368% (SIGMA ALDRICH) • Sodium phosphate bibasic dihydrate: 0.711% (SIGMA ALDRICH) • Sodium chloride: 0.400% (SIGMA ALDRICH) • water for injectables: up to 100% (FRESENIUS KABI ITALIA S.R.L.).
(§2) This staining composition was compared with two staining composition available on the market, more specifically: • a staining composition including BBG and marketed under the trade name of ILM-BLUE® (D.O.R.C. Dutch Ophthalmic Research Center (International) B.V.), and with • a staining composition including methyl-BBG according to WO 2016/189475 marketed under the trade name of VIEW-ILM (AL.CHI.MI.A. S.r.l.).
(§3) Porcine eyes were obtained from a slaughterhouse and were prepared within 5 hours after death, the eyes were placed on a plastic holder, and a 360-degree limbal incision was performed for corneal removal, followed by total iris removal. Whole vitreous was gently extracted.
Next, 1 ml of BSS was placed in the eye and 40 µl of dye formulation was gently placed in the eye, by a Gilson pipet, for 30 seconds; then the BSS along the dye were removed and the eye rinsed with BSS. […]
Retina and ILM tissue samples obtained as described above were weighed and homogenized in 250-500 µl of methanol. […] The residues were reconstituted in 100 µl of mobile phase by vortexing for 120 s, filtered again on 0.45 µm filters and, finally, 20 µl aliquots were injected onto the chromatographic apparatus (each sample was analyzed in triplicate). […]
(§4) Quantification of the dye molecule was performed using 6-10 points external regression curves performed at 613 nm. […]
(§5) In the data analysis, statistical differences of ex-vivo data are determined using analysis of variance (ANOVA) followed by the Bonferroni-Dunn post hoc pairwise comparison procedure. […]

[2] = system: proteins and protein chains; test: SDS-PAGE protein staining, whole set of molecular weight standards (spots versus background); conditions: result in words; dye 0.05% by weight/volume
Protocol: The dye molecules according to the invention were tested in order to show their higher selectivity for proteins and protein chains with respect to BBG. For this purpose, SDS-PAGE electrophoresis tests were performed in order to compare the Benzyl-BBG according to the invention (Example 4) and the Ethyl-BBG according to Example 2 with a commercially available grade of BBG (Sigma-Aldrich 90% purity).
A set of molecular weight standards was created by mixing different amounts of known proteins (E.coli beta-galactosidase - 116.3 kDa, bovine serum albumin - 66.5 kDa, chicken ovalbumin - 42.7 kDa and equine cytochrome C - 12,384 Da) in such a way as to obtain bands of similar intensity. In order to do so, an inverse relationship between amount (as nanograms of protein) and molecular weight of any protein was initially achieved, and small adjustments were experimentally made. Polyacrylamide gel electrophoresis was done in 9% precast gels (Bio-Rad) at 20V for 60-90 minutes in denaturing conditions; standards were loaded in triplicate on separate lanes. […]

[3] = system: ILM; test: Ex-vivo staining of porcine eyes, dye extraction and HPLC quantification in peeled ILM; conditions: ex-vivo swine eyes; for amounts of the dye molecule in the ILM (mean): 40 µl dye formulation in 1 ml BSS for 30 seconds, mean of 6, BBG 0.025% (ILM-BLUE), methyl-BBG 0.03% (VIEW-ILM), Benzyl-BBG 0.025%
Protocol: as §1, §2, §3
Next, 1 ml of BSS was placed in the eye and 40 µl of dye formulation was gently placed in the eye, by a Gilson pipet, for 30 seconds; then the BSS along the dye were removed and the eye rinsed with BSS.
The peeling of ILM was carried out by forceps and the tissue placed in an Eppendorf tube, the rest of retina near the area of ILM peeling was collected and placed in another Eppendorf tube.
The average amount of ILM tissue was of about 2 mg, whereas the average amount of retina tissue was of about 20 mg.
All tissues (ILM and retina) were stored at -20°C before HPLC analysis.
Retina and ILM tissue samples obtained as described above were weighed and homogenized in 250-500 µl of methanol. The homogenates were then transferred in an Eppendorf tube, ultrasonically extracted using a Branson Sonifier, centrifuged at 1,000 x g for 10 min and filtered on 0.45 µm syringe filters. The filtrates were transferred into labeled, clean test tubes and evaporated to dryness under a stream of nitrogen. The residues were reconstituted in 100 µl of mobile phase by vortexing for 120 s, filtered again on 0.45 µm filters and, finally, 20 µl aliquots were injected onto the chromatographic apparatus (each sample was analyzed in triplicate). […]
as §4, §5

[4] = cited from earlier work

CCOc1ccc(Nc2ccc(C(=C3C=CC(=[N+](CC)Cc4cccc(S(=O)(=O)[O-])c4)C=C3C)c3ccc(N(CC)Cc4cccc(S(=O)(=O)O)c4)cc3C)cc2)cc1 [BBG, Coomassie Brilliant Blue G-250]
increase in the dyes content in the retina with respect to the staining formulation according to the invention [1]: 20.1 fold

CCOc1ccc(N(Cc2ccccc2)c2ccc(C(=C3C=CC(=[N+](CC)Cc4cccc(S(=O)(=O)[O-])c4)C=C3C)c3ccc(N(CC)Cc4cccc(S(=O)(=O)O)c4)cc3C)cc2)cc1 [Benzyl-BBG]
difference between the spot intensity of Benzyl-BBG and Ethyl-BBG [2]: No significant difference | amounts of the dye molecule in the ILM (mean) [3]: 214.88 ng/mg tissue | amounts of the dye molecule in the ILM (mean) ([3]; listed as benzyl-BBG): about 215 ng/mg tissue | increase of dye content in ILM with respect to the known formulation including BBG ([3]; p = 0,002): 2.9 fold | increase of dye content in ILM with respect to the known formulation including methyl-BBG ([3]; p<0,001): 6.0 fold | amounts of the dye molecule in the retina (mean) ([1]; 40 µl dye formulation in 1 ml BSS for 30 seconds, mean of 6, BBG 0.025% (ILM-BLUE), methyl-BBG 0.03% (VIEW-ILM), Benzyl-BBG 0.025%): 19.69 ng/mg tissue

c1ccc(CNCc2ccccc2)cc1 [dibenzylamine]
pKa [4]: 8.52

CCOc1ccc(N(C)c2ccc(C(=C3C=CC(=[N+](CC)Cc4cccc(S(=O)(=O)[O-])c4)C=C3C)c3ccc(N(CC)Cc4cccc(S(=O)(=O)O)c4)cc3C)cc2)cc1 [methyl-BBG]
increase in the dyes content in the retina with respect to the staining formulation according to the invention [1]: 10.9 fold
